For one data set, the system named is JB181 (synthetic). Description: EMSA.
A further data set has as its target HIV-1 TAR RNA. The data set is classed as binding. The conditions noted are these: EMSA, positional scanning library, Table S1. The procedure: (§1) Electro Mobility Shift Assays (EMSA) and 2-aminopurine fluorescence ([35]) were used to measure peptide binding. For EMSA, all RNAs were 5′-dephosphorylated ([25],[26]) and 5′-rephosphorylated using T4 Polynucleotide Kinase (PNK); shifts were performed and analyzed as previously described ([14]). The P-TEFb/Tat1:57/AFF4 binding assays were run as described ([11]), with protein samples generously donated by Drs Ursula Schulze-Gahmen and James Hurley, but binding buffers contained 250× fold excess yeast tRNA. JB181-bound samples were prepared with 3× excess labeled HIV-TAR prior to titration with the pre-formed P-TEFb/Tat1:57/AFF4 complex.
(§2) Fig. S1. a) HIV-1 TAR, BIV TAR and 7SK-SL4 RNAs have similar secondary structures, but the JB181 peptide discriminates between them. […]
(§3) tightly than BIV TAR (3.3 nM) or 7SK (>3 μM) RNAs. b) EMSA of representative JB-peptides with 32P radiolabeled HIV-1 TAR RNA ([RNA]=75pM). The peptide concentration increases from left to right, as indicated. The dissociation constant can be estimated by the peptide concentration where there is an approximate 1:1 ratio (as established by visual inspection) between free RNA and complex, since the RNA concentration is much lower than the KD.
(§4) (1 picture or pasted object on this page, not shown here)

A further data set deals with BIV TAR RNA. The data set is described as follows: EMSA binding to BIV TAR. Conditions: positional scanning library, Table S1. The procedure: as §1, §2, §3, §4
Where [1] appears, read: with tRNA, read-out: Kd (nM) w/tRNA.
Setting [2] is: without tRNA, read-out: Kd (nM) no tRNA.

Read-outs that look alike come from different tables or passages of the source. Non-standard residues stand in square brackets, D forms with d. Residues, ends and D or L forms follow the SMILES beside them. hArg = N=C(N)NCCCC[C@H](N)C(=O)O Bounds are passed on as bounds.

For the compound 7SK-SL4, the Kd in the data set on JB181 (synthetic) (EMSA: 32P RNA (75-100 pM), 250-fold excess tRNA, buffer as in cited work (not given), 2-AP fluorescence: 100 fM RNA, NMR: 10 mM K phosphate pH 6.5, 10 mM NaCl …) is greater than 3000 nM.

Turning to `CC[C@H](C)[C@@H]1NC(=O)[C@H](CCCNC(=N)N)NC(=O)[C@H](CCCNC(=N)N)NC(=O)CNC(=O)[C@H](CCCCN)NC(=O)[C@H](CCCNC(=N)N)NC(=O)[C@H]([C@@H](C)O)NC(=O)[C@H](CCCNC(=N)N)NC(=O)[C@H](C(C)C)NC(=O)[C@H](CCCCN)NC(=O)[C@@H]2CCCN2C(=O)[C@H]2CCCN2C(=O)[C@H]([C@@H](C)CC)NC(=O)[C@H](CCCNC(=N)N)NC1=O` [JB-60] (cyclo(KVRTRKGRRIRI[dP]P)), the Kd at HIV-1 TAR RNA (setting [1]) was 300 nM; on HIV-1 TAR RNA (setting [2]) it was 3 nM; at BIV TAR RNA, greater than 5000 nM.

With `CC[C@H](C)[C@@H]1NC(=O)[C@H](CCCNC(=N)N)NC(=O)[C@H](CCCNC(=N)N)NC(=O)CNC(=O)[C@H](CCCCN)NC(=O)[C@H](CCCNC(=N)N)NC(=O)[C@H]([C@@H](C)O)NC(=O)[C@H](CCCNC(=N)N)NC(=O)[C@H](Cc2ccc(O)cc2)NC(=O)[C@H](CCCNC(=N)N)NC(=O)[C@@H]2CCCN2C(=O)[C@H]2CCCN2C(=O)[C@H]([C@@H](C)CC)NC(=O)[C@H](CCCNC(=N)N)NC1=O` [JB-62] (cyclo(RYRTRKGRRIRI[dP]P)), the Kd was 150 nM on HIV-1 TAR RNA (setting [1]), 1 to 5 nM on HIV-1 TAR RNA (setting [2]) and 10 nM on BIV TAR RNA.

`CC[C@H](C)[C@@H]1NC(=O)[C@H](CCCNC(=N)N)NC(=O)[C@H](CCCNC(=N)N)NC(=O)CNC(=O)[C@H](CCCCN)NC(=O)[C@H](CCCNC(=N)N)NC(=O)[C@H]([C@@H](C)O)NC(=O)[C@H](CCCNC(=N)N)NC(=O)[C@H](CC(N)=O)NC(=O)[C@H](CCCNC(=N)N)NC(=O)[C@@H]2CCCN2C(=O)[C@H]2CCCN2C(=O)[C@H]([C@@H](C)CC)NC(=O)[C@H](CCCNC(=N)N)NC1=O` [JB-63] (cyclo(RNRTRKGRRIRI[dP]P)): the Kd on HIV-1 TAR RNA (setting [1]) was 100 nM; on HIV-1 TAR RNA (setting [2]), 1 nM; on BIV TAR RNA, less than 1 nM.

With `CC[C@H](C)[C@@H]1NC(=O)[C@H](CCCNC(=N)N)NC(=O)[C@H](CCCNC(=N)N)NC(=O)CNC(=O)[C@H](CCCCN)NC(=O)[C@H](CCCNC(=N)N)NC(=O)[C@H]([C@@H](C)O)NC(=O)[C@H](CCCNC(=N)N)NC(=O)[C@H]([C@@H](C)O)NC(=O)[C@H](CCCNC(=N)N)NC(=O)[C@@H]2CCCN2C(=O)[C@H]2CCCN2C(=O)[C@H]([C@@H](C)CC)NC(=O)[C@H](CCCNC(=N)N)NC1=O` [JB-65] (cyclo(RTRTRKGRRIRI[dP]P)), the Kd is 50 nM on HIV-1 TAR RNA (setting [1]), 1 nM at HIV-1 TAR RNA (setting [2]) and less than 1 nM at BIV TAR RNA.

Turning to `CC[C@H](C)[C@@H]1NC(=O)[C@H](CCCNC(=N)N)NC(=O)[C@H](CCCNC(=N)N)NC(=O)CNC(=O)[C@H](CCCCN)NC(=O)[C@H](CCCNC(=N)N)NC(=O)[C@H]([C@@H](C)O)NC(=O)[C@H](CCCNC(=N)N)NC(=O)[C@H](C)NC(=O)[C@H](CCCNC(=N)N)NC(=O)[C@@H]2CCCN2C(=O)[C@H]2CCCN2C(=O)[C@H]([C@@H](C)CC)NC(=O)[C@H](CCCNC(=N)N)NC1=O` [JB-66] (cyclo(RARTRKGRRIRI[dP]P)), the figures for the Kd at HIV-1 TAR RNA (setting [1]), on HIV-1 TAR RNA (setting [2]) and on BIV TAR RNA were 100 nM, 1 nM and 1 nM, respectively.

As to `CC[C@H](C)[C@@H]1NC(=O)[C@H](CCCNC(=N)N)NC(=O)[C@H](C)NC(=O)[C@H](CCCNC(=N)N)NC(=O)[C@H](CCCNC(=N)N)NC(=O)CNC(=O)[C@H](CCCCN)NC(=O)[C@H](CCCNC(=N)N)NC(=O)[C@H]([C@@H](C)O)NC(=O)[C@H](CCCNC(=N)N)NC(=O)[C@H](C(C)C)NC(=O)[C@H](CCCNC(=N)N)NC(=O)[C@@H]2CCCN2C(=O)[C@H]2CCCN2C1=O` [JB-75] (cyclo(RVRTRKGRRARI[dP]P)), the Kd on HIV-1 TAR RNA (setting [1]) was 300 nM; at HIV-1 TAR RNA (setting [2]) it was 5 nM; on BIV TAR RNA, 1 to 5 nM.

Take `CC[C@H](C)[C@@H]1NC(=O)[C@H](CCCNC(=N)N)NC(=O)[C@H](C(C)C)NC(=O)[C@H](CCCNC(=N)N)NC(=O)[C@H](CCCNC(=N)N)NC(=O)CNC(=O)[C@H](CCCCN)NC(=O)[C@H](CCCNC(=N)N)NC(=O)[C@H]([C@@H](C)O)NC(=O)[C@H](CCCNC(=N)N)NC(=O)[C@H](C(C)C)NC(=O)[C@H](CCCNC(=N)N)NC(=O)[C@@H]2CCCN2C(=O)[C@H]2CCCN2C1=O` [JB-76] (cyclo(RVRTRKGRRVRI[dP]P)): the Kd at HIV-1 TAR RNA (setting [1]) was less than 50 nM; on HIV-1 TAR RNA (setting [2]), 1 nM; at BIV TAR RNA, 1 nM.

Take `CC[C@H](C)[C@@H]1NC(=O)[C@H](CCCNC(=N)N)NC(=O)[C@H](CCCNC(=N)N)NC(=O)CNC(=O)[C@H](CCCCN)NC(=O)[C@H](CCCNC(=N)N)NC(=O)[C@H]([C@@H](C)O)NC(=O)[C@H](CCCNC(=N)N)NC(=O)[C@H](C(C)C)NC(=O)[C@H](CCCNC(=N)N)NC(=O)[C@@H]2CCCN2C(=O)[C@H]2CCCN2C(=O)[C@H](C(C)C)NC(=O)[C@H](CCCNC(=N)N)NC1=O` [JB-84] (cyclo(RVRTRKGRRIRV[dP]P)): the Kd on HIV-1 TAR RNA (setting [1]) was found to be 50 nM; on HIV-1 TAR RNA (setting [2]), 1 nM; on BIV TAR RNA it was 1 nM.

Take `CC[C@H](C)[C@@H]1NC(=O)[C@H](CCCNC(=N)N)NC(=O)[C@H](CCCNC(=N)N)NC(=O)CNC(=O)[C@H](CCCCN)NC(=O)[C@H](CCCNC(=N)N)NC(=O)[C@H]([C@@H](C)O)NC(=O)[C@H](CCCNC(=N)N)NC(=O)[C@H](C(C)C)NC(=O)[C@H](CCCNC(=N)N)NC(=O)[C@@H]2CCCN2C(=O)[C@H]2CCCN2C(=O)[C@H](CC(C)C)NC(=O)[C@H](CCCNC(=N)N)NC1=O` [JB-85] (cyclo(RVRTRKGRRIRL[dP]P)): the Kd on HIV-1 TAR RNA (setting [1]) is 50 nM; at HIV-1 TAR RNA (setting [2]), 5 nM; on BIV TAR RNA, 1 nM.

As to `CC[C@H](C)[C@@H]1NC(=O)[C@H](CCCNC(=N)N)NC(=O)[C@H](CCCNC(=N)N)NC(=O)CNC(=O)[C@H](CCCCN)NC(=O)[C@H](CCCNC(=N)N)NC(=O)[C@H]([C@@H](C)O)NC(=O)[C@H](CCCNC(=N)N)NC(=O)[C@H](C(C)C)NC(=O)[C@H](CCCCNC(=N)N)NC(=O)[C@@H]2CCCN2C(=O)[C@H]2CCCN2C(=O)[C@H]([C@@H](C)CC)NC(=O)[C@H](CCCNC(=N)N)NC1=O` [KP-Y-01] (cyclo([hArg]VRTRKGRRIRI[dP]P)), the Kd at HIV-1 TAR RNA (setting [1]) was 150 nM.

For `CC[C@H](C)[C@@H]1NC(=O)[C@H](CCCNC(=N)N)NC(=O)[C@H](CCCNC(=N)N)NC(=O)CNC(=O)[C@H](CCCCN)NC(=O)[C@H](CCCNC(=N)N)NC(=O)[C@H]([C@@H](C)O)NC(=O)[C@H](CCCCNC(=N)N)NC(=O)[C@H](C(C)C)NC(=O)[C@H](CCCNC(=N)N)NC(=O)[C@@H]2CCCN2C(=O)[C@H]2CCCN2C(=O)[C@H]([C@@H](C)CC)NC(=O)[C@H](CCCNC(=N)N)NC1=O` [KP-Y-02] (cyclo(RV[hArg]TRKGRRIRI[dP]P)), the Kd at HIV-1 TAR RNA (setting [1]) was found to be 200 nM.

Turning to `CC[C@H](C)[C@@H]1NC(=O)[C@H](CCCNC(=N)N)NC(=O)[C@H](CCCNC(=N)N)NC(=O)CNC(=O)[C@H](CCCCN)NC(=O)[C@H](CCCCNC(=N)N)NC(=O)[C@H]([C@@H](C)O)NC(=O)[C@H](CCCNC(=N)N)NC(=O)[C@H](C(C)C)NC(=O)[C@H](CCCNC(=N)N)NC(=O)[C@@H]2CCCN2C(=O)[C@H]2CCCN2C(=O)[C@H]([C@@H](C)CC)NC(=O)[C@H](CCCNC(=N)N)NC1=O` [KP-Y-03] (cyclo(RVRT[hArg]KGRRIRI[dP]P)), on HIV-1 TAR RNA (setting [1]), the Kd amounted to 200 nM.

Take `CC[C@H](C)[C@@H]1NC(=O)[C@H](CCCNC(=N)N)NC(=O)[C@H](CCCCNC(=N)N)NC(=O)CNC(=O)[C@H](CCCCN)NC(=O)[C@H](CCCNC(=N)N)NC(=O)[C@H]([C@@H](C)O)NC(=O)[C@H](CCCNC(=N)N)NC(=O)[C@H](C(C)C)NC(=O)[C@H](CCCNC(=N)N)NC(=O)[C@@H]2CCCN2C(=O)[C@H]2CCCN2C(=O)[C@H]([C@@H](C)CC)NC(=O)[C@H](CCCNC(=N)N)NC1=O` [KP-Y-04] (cyclo(RVRTRKG[hArg]RIRI[dP]P)): the Kd at HIV-1 TAR RNA (setting [1]) was 75 nM.

Consider `CC[C@H](C)[C@@H]1NC(=O)[C@H](CCCCNC(=N)N)NC(=O)[C@H](CCCNC(=N)N)NC(=O)CNC(=O)[C@H](CCCCN)NC(=O)[C@H](CCCNC(=N)N)NC(=O)[C@H]([C@@H](C)O)NC(=O)[C@H](CCCNC(=N)N)NC(=O)[C@H](C(C)C)NC(=O)[C@H](CCCNC(=N)N)NC(=O)[C@@H]2CCCN2C(=O)[C@H]2CCCN2C(=O)[C@H]([C@@H](C)CC)NC(=O)[C@H](CCCNC(=N)N)NC1=O` [KP-Y-05] (cyclo(RVRTRKGR[hArg]IRI[dP]P)), for which the Kd on HIV-1 TAR RNA (setting [1]) was found to be 100 nM.

In the data set with JB181 (synthetic), GGCUCGUGUAGCUCAUUAGCUCCGAGCC [BIV TAR] yielded a Kd of 3.3 nM.

As to HIV-1 TAR A35C, in the data set with JB181 (synthetic), the Kd is less than 1.3 nM.

In the data set on JB181 (synthetic), HIV-1 TAR A35G, G28A registered a Kd of 11 nM.

Compound HIV-1 TAR A35G, G28C gave a Kd in the data set on JB181 (synthetic) of 10 nM.

On to HIV-1 TAR A35del, for which the Kd in the data set on JB181 (synthetic) is less than 1.3 nM.

Consider HIV-1 TAR G32A, G36A, for which, in the data set on JB181 (synthetic), the Kd is less than 0.166 nM.

HIV-1 TAR G33A, G34A, G21A came in with a Kd in the data set with JB181 (synthetic) of 70 nM.

In the data set on JB181 (synthetic), HIV-1 TAR U25C had a Kd of 1 nM.
